{
  "source": "patent US11576987B2",
  "about": "“Compositions and methods of treating melanoma” (UNIVERSITY OF IOWA RESEARCH FOUNDATION, priority 2016, dated 2023)",
  "key": {"[1]": {"system": "metastatic melanoma", "settings": "cited from earlier work"}, "[2]": {"system": "MC1R expression", "test": "Real-time PCR analysis of MC1R expression in melanoma cells", "type": "cell-based, human", "settings": "substantiated by flow cytometry and radiopeptide binding", "protocol": "FIG. 10. Real-time PCR analysis of MC1R expression in A2058 and MEWO melanoma cells. A2058 cells were exposed to BRAFi GSK2118436, MEKi GSK1120212 and HDACi PBA for 24 h. Similarly, MEWO cells were treated with PBA and SAHA. Total RNA was isolated and reverse transcripted to cDNA. Real-time PCR was performed using 50 ng of each cDNA sample with labeled primer VIC-MC1R and FAM-NADPH. mRNA fold changes were calculated by ΔΔCt method and expressed as (n=3; Mean±SEM).\nqPCR measurements are included to measure the change in MCR1 mRNA with changes in the concentration and incubation time for each drug and combinations (FIG. 10). These experiments are carried out as in FIG. 10 according to manufacturers' protocols, cells are seeded into 6-well plates until ˜80% confluent. After drug treatments, total RNA is isolated (Qiagen RNeasy Mini Kit). 1 μg of total RNA from each cell sample is used for reverse transcription using a high capacity reverse transcription kit (Applied Biosystem). cDNA samples are kept at −80° C. until use. Upon use, cDNA templates are employed in the qRT-PCR using a Taqman Gene Expression Assay for human MC1R (Assay ID: Hs00267167_s1). Human 18S (Assay ID: Hs99999901_s1) and human GAPDH (Assay ID: Hs03929097_g1) are used as housekeeping gene controls. […] Reactions are carried out in Applied Biosystem 7900HT. mRNA level is calculated by comparative ΔΔCt method."}},
  "note": "Where a name gives a salt, the structure may show the parent alone.",
  "data": [
    {"smiles": "O=C(O)CCCc1ccccc1", "note": "[PBA, 4-phenylbutyric acid, sodium salt]", "values": [
      {"measurement": "tolerated dose in patients", "setting": "[1]", "result": "up to 27 g/day"},
      {"measurement": "MCR1 expression by RT-PCR", "setting": "[2]", "result": "Enhanced expression of MCR1"}
    ]}
  ]
}
